How the values were obtained:
[1] = target: T1, butyrylcholinesterase (BChE) (Equus caballus, UniProt P81908); test: Anticholinesterase assay (Ellman's), BChE inhibition; type: biochemical, equine
T1 construct: butyrylcholinesterase (BChE, obtained from equine serum); from tissue; host or cells: equine serum
Method: This enzyme method relied on the hydrolytic of acetyl cholinethioiodide (ATChI) by acetylcholinesterase and butyrylthiocholine iodide (BTchI) by butyrylcholinesterase. As a result of this breakdown, 5-thio-2-nitrobenoate anions formed. […] The absorption was measured with a spectrophotometer, as per the protocols. […] An amount of 0.1 M phosphate buffer (8.0 ± 0.1 pH) solution was prepared, whose final pH was adjusted by using the KOH solution.
In this assay, 50 µL enzyme solution and 50 µL DTNB reagent were added to 1 mL test samples in a cuvette and then incubated at 30 °C for 15 min. Afterward, a 50 µL substrate solution was added to the mixture.

[2] = DPPH free radical scavenging assay
Method: The antioxidant potentials of isolated compounds (phytosteroids 1 and 2) were determined following the DPPH standard assay. Initially, DPPH (24 mg) was dissolved in methanol (100 mL). Stock solutions of the test compounds were prepared in different dilutions (62.50–1000 μg/mL). From each dilution, 1 mL was mixed with 1 mL of the DPPH solution. The solution mixtures were incubated at room temperature for 0.5 h. Afterward, absorbance was recorded at 517 nm with a UV-visible spectrophotometer. Ascorbic acid was the standard drug, whereas the DPPH solution without the compound was negative control. The percent radical scavenging potential of the test compounds was calculated using the following formula: % DPPH activity=X−X1/X×100 where X = absorbance of the control, and X1 = absorbance of the test compound.

COX-2 = target: T2, COX-2 (Homo sapiens, UniProt P35354); test: biochemical
T2 sequence (P35354 18-604): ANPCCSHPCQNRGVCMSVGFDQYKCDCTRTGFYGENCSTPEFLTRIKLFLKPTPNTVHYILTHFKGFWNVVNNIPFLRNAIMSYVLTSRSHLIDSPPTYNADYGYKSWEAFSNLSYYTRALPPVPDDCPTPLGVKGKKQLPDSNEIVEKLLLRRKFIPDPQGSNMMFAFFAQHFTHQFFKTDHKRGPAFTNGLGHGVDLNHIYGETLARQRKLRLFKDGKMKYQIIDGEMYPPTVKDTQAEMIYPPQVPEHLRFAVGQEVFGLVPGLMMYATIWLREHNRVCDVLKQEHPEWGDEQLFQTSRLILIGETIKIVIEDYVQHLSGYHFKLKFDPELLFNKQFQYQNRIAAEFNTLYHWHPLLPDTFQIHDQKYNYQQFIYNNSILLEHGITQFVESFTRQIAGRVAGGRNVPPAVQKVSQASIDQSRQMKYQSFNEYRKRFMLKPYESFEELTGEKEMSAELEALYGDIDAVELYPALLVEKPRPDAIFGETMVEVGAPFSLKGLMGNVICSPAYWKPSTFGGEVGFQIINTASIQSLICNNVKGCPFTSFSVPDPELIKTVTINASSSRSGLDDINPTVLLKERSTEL
Method: (§1) The Cyclooxygenase enzymes (COX-1 and 2) inhibitory potential of our test compounds was determined according to the previously reported procedure. […] The enzyme solutions with a concentration of 0.7–0.8 μg/10 μL (COX-1) and 300 U/mL (COX-2) were prepared. To start the assay, for enzyme activation, 10 µL enzyme solution (kept in a cool temperature of 4 °C for 5 min) and cofactor containing hematin (50 µL, 1 mM), glutathione (0.9 mM) and TMPD in a Tris-buffer (0.1 M) with a pH 8.0 was added. After that, 60 µL of the enzyme solution was added to 20 µL of the test samples of various concentrations and incubated at room temperature for 5 to 10 min. Then, 20 µL of arachidonic acid (30 mM) was added to start the reaction. The mixture was then again incubated for 15 min at 37 °C, and absorbances were measured at 570 nm with UV-visible spectrophotometer. […] The % enzyme inhibitions were calculated by using the previously reported formula.

COX-1 = COX-1 (Homo sapiens, UniProt P23219); test: biochemical; conditions: read-out: % COX-1 Inhibition
Chain of COX-1 (P23219 24-599): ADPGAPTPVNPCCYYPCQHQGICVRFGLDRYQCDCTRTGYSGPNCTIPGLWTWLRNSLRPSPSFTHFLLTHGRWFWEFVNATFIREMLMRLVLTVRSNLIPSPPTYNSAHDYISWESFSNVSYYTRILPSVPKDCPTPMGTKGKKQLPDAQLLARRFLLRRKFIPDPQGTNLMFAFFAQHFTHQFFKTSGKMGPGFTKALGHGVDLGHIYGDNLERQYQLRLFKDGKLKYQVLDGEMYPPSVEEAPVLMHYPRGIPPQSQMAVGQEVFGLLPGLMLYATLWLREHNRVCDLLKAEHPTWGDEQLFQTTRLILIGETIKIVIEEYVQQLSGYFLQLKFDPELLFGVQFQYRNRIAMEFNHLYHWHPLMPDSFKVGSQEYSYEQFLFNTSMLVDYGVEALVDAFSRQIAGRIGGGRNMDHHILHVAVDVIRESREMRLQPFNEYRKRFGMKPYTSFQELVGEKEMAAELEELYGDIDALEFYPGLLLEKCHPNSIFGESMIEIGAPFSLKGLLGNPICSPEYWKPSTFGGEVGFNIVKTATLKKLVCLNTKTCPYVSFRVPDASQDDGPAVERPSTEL
Method: as §1

T1 sequence (P81908 whole entry): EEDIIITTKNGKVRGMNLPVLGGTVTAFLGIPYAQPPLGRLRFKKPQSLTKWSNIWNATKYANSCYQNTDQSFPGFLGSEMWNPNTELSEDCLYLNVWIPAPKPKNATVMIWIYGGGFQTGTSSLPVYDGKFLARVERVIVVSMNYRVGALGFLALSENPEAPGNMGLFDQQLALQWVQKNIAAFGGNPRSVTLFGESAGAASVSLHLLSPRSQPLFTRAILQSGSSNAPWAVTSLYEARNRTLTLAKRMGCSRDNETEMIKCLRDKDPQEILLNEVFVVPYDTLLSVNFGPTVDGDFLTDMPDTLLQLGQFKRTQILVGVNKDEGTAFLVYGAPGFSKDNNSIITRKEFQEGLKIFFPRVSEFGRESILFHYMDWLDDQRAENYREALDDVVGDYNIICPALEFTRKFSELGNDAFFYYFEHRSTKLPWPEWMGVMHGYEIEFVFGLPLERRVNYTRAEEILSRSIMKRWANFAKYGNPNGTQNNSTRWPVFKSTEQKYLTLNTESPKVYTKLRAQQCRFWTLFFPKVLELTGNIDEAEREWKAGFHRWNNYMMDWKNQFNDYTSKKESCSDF

## CCC(CCC(C)C1CCC2C3CCC4=CC(=O)CCC4(C)C3CCC12C)C(C)C (stereo not drawn) [Compound 2, 17-(5-ethyl-6-methylheptan-2-yl)-10,13-dimethyl-1,2,6,7,8,9,10,11,12,13,14,15,16,17-tetradecahydro-3H-cyclopenta[a]phenanthren-3-one]
[1]
  IC50: 25.8 µM
[1]; 62.5 μg/mL
  Percent BChE (mean ± SEM): 61.35 ± 0.18 %
[1]; 125 μg/mL
  Percent BChE (mean ± SEM): 66.20 ± 0.15 %
[1]; 250 μg/mL
  Percent BChE (mean ± SEM): 73.42 ± 0.11 %
[1]; 500 μg/mL
  Percent BChE (mean ± SEM): 78.62 ± 0.17 %
[1]; 1000 μg/mL
  Percent BChE (mean ± SEM): 83.53 ± 0.20 %
[2]
  DPPH IC50: 218.83 µg/mL
[2]; 62.5 μg/mL
  Percent DPPH Activity (mean ± SEM): 33.00 ± 1.15 %
[2]; 125 μg/mL
  Percent DPPH Activity (mean ± SEM): 42.67 ± 0.89 %
[2]; 250 μg/mL
  Percent DPPH Activity (mean ± SEM): 49.00 ± 0.58 %
[2]; 500 μg/mL
  Percent DPPH Activity (mean ± SEM): 63.03 ± 0.23 %
[2]; 1000 μg/mL
  Percent DPPH Activity (mean ± SEM): 71.33 ± 0.49 %
[2]; 1000 μg/mL, listed as compound 2
  Percent DPPH Activity (mean ± SEM): 71.33 ± 0.49%
COX-2; 62.50 μg/mL, read-out: % COX-2 Inhibition
  inhibition at 62.5 µg/mL: 61.9 ± 1.13%
COX-2; 125 μg/mL, read-out: % COX-2 Inhibition
  inhibition at 125 µg/mL: 68.3 ± 0.64%
COX-2; 250 μg/mL, read-out: % COX-2 Inhibition
  inhibition at 250 µg/mL: 73.34 ± 0.63%
COX-2; 500 μg/mL, read-out: % COX-2 Inhibition
  inhibition at 500 µg/mL: 78.3 ± 0.64%
COX-2; 1000 μg/mL, read-out: % COX-2 Inhibition
  inhibition at 1000 µg/mL: 83.17 ± 0.72%
COX-2; read-out: COX-2 IC50 (converted)
  IC50: 20.5 µM
COX-1
  inhibition at 62.5 µg/mL: 32.5 ± 0.65%
  inhibition at 125 µg/mL: 37.7 ± 0.45%
  inhibition at 250 µg/mL: 44.86 ± 0.02%
  inhibition at 500 µg/mL: 51.67 ± 0.11%
  inhibition at 1000 µg/mL: 57.6 ± 1.18%

From publication PMC9599613 (Biomolecules, 2022)
